This passage reports GI50 and TGI results from PubChem BioAssay (NCI).

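Cultured in 96-well plates, cells were exposed to test compound for 48 hours across five concentrations. GI50 marks 50% less growth. TGI denotes the concentration required for complete inhibition of growth.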

Test systems include A498 renal; HCT-15 colon; KM12 colon; MDA-MB-435; OVCAR-3 ovarian; SK-MEL-28 melanoma; SNB-19 CNS; SNB-75 CNS.
Assay in all cases: NCI-60 cell line screen, 48 h

Consider `CC1(C)CC2(C)OC2C2(C1)N=NC(=Nc1ccccc1)O2` (stereo unspecified), for which the GI50 in the experiment on A498 renal was 16.7 µM; in the experiment with HCT-15 colon, 1.68 µM; with KM12 colon, 13.6 µM; in the experiment on MDA-MB-435, 3.01 µM; in the experiment on OVCAR-3 ovarian, 2.23 µM; with SK-MEL-28 melanoma it was 11.9 µM. For the same molecule, the GI50 in the experiment with SNB-19 CNS was 14.1 µM; in the experiment on SNB-75 CNS, 16.4 µM. For the same molecule, the TGI was 34.8 µM in the experiment on A498 renal; 4.62 µM in the experiment with HCT-15 colon; 28.6 µM with KM12 colon; 24.2 µM in the experiment on MDA-MB-435; 4.81 µM in the experiment with OVCAR-3 ovarian; 27.4 µM in the experiment on SK-MEL-28 melanoma. Moreover, the TGI with SNB-19 CNS stood at 28 µM; with SNB-75 CNS, 30.4 µM.
For `CN1CC(C(=O)NC2(C)OC3(O)C4CCCN4C(=O)C(Cc4ccccc4)N3C2=O)C=C2c3cccc4[nH]cc(c34)CC21` (stereo unspecified), the TGI in the experiment with A498 renal stood at 30.9 µM; in the experiment on HCT-15 colon, 45.9 µM; in the experiment on KM12 colon it was 99.6 µM; in the experiment on MDA-MB-435, 50.7 µM; with OVCAR-3 ovarian, 43.3 µM; in the experiment with SK-MEL-28 melanoma it was 35.2 µM. Also, the TGI in the experiment on SNB-19 CNS and in the experiment with SNB-75 CNS was over 100 µM throughout.
`COc1cc(/C=C\c2cccnc2Nc2ccccc2)cc(OC)c1OC`: the GI50 was 2.64 µM in the experiment on A498 renal; 5.02 µM with HCT-15 colon; 6.5 µM in the experiment on KM12 colon; 5.63 µM with MDA-MB-435; 7.45 µM with OVCAR-3 ovarian; 5.43 µM in the experiment on SK-MEL-28 melanoma. Moreover, the GI50 was 6.8 µM in the experiment with SNB-19 CNS and 4.12 µM in the experiment with SNB-75 CNS. The TGI with A498 renal is 36.5 µM; in the experiment with HCT-15 colon, over 100 µM; in the experiment on KM12 colon, over 100 µM; in the experiment on MDA-MB-435, 43.3 µM; in the experiment with OVCAR-3 ovarian it was 28.7 µM; with SK-MEL-28 melanoma, 41 µM. The figures for the TGI in the experiment with SNB-19 CNS and in the experiment on SNB-75 CNS were over 100 µM and 57.5 µM, respectively.
Take `CN1C(=O)C23CC4=CC=CC(O)C4N2C(=O)C1(CO)SS3` (stereo unspecified): the TGI was determined as 0.402 µM with A498 renal; 0.419 µM in the experiment on HCT-15 colon; 0.453 µM with KM12 colon; 2.56 µM in the experiment with MDA-MB-435; 0.33 µM with OVCAR-3 ovarian; 2.26 µM in the experiment with SK-MEL-28 melanoma. In addition, the TGI in the experiment on SNB-19 CNS turned out to be 0.55 µM; in the experiment on SNB-75 CNS, 0.382 µM.
Consider `OCCCCC#Cc1ccccc1C#Cc1cnccn1`, for which the GI50 is 13.5 µM with A498 renal; 33.3 µM in the experiment with HCT-15 colon; 36.2 µM with KM12 colon; 33.8 µM in the experiment with MDA-MB-435; 31.3 µM in the experiment on OVCAR-3 ovarian; 43.4 µM in the experiment with SK-MEL-28 melanoma. Further, the GI50 in the experiment on SNB-19 CNS was 73.4 µM; with SNB-75 CNS it was 17.3 µM. For the same molecule, the TGI in the experiment on A498 renal is 53.9 µM; in the experiment on HCT-15 colon, over 100 µM; in the experiment on KM12 colon, over 100 µM; in the experiment on MDA-MB-435, over 100 µM; in the experiment on OVCAR-3 ovarian, over 100 µM; in the experiment with SK-MEL-28 melanoma, over 100 µM. For the same molecule, the figures for the TGI in the experiment with SNB-19 CNS and in the experiment with SNB-75 CNS were over 100 µM and 53.7 µM, respectively.
For `Cc1nc(C(N)=S)sc1C(=O)CC(=O)C(=O)Nc1cccc(Cl)c1C`, the TGI in the experiment with A498 renal, in the experiment with HCT-15 colon, in the experiment on KM12 colon, in the experiment on MDA-MB-435, in the experiment with OVCAR-3 ovarian and with SK-MEL-28 melanoma was over 100 µM in each case. Also, the TGI in the experiment with SNB-19 CNS and in the experiment with SNB-75 CNS was over 100 µM each time.
Take `COc1ccc(N=C2NN=C(c3c[nH]c4ccccc34)CS2)cc1OC`: the GI50 in the experiment with A498 renal is 4.43 µM; in the experiment on HCT-15 colon it was 4.02 µM; with KM12 colon it was 3.05 µM; with MDA-MB-435, 1.3 µM; in the experiment on OVCAR-3 ovarian, 2.87 µM; with SK-MEL-28 melanoma, 15.3 µM. The figures for the GI50 in the experiment with SNB-19 CNS and in the experiment with SNB-75 CNS were 10.9 µM and 3.34 µM, respectively. Further, the TGI is over 61.3 µM in the experiment with A498 renal; over 100 µM in the experiment with HCT-15 colon; over 84.2 µM in the experiment on KM12 colon; 4 µM with MDA-MB-435; over 40.6 µM in the experiment on OVCAR-3 ovarian; over 90.4 µM with SK-MEL-28 melanoma. Further, the TGI with SNB-19 CNS was over 100 µM; in the experiment with SNB-75 CNS, 20.6 µM.
With `CN(C)c1ccc(Sc2ccc3nc(N)nc(N)c3c2)cc1`, the GI50 was 3.34 µM with A498 renal; 0.429 µM in the experiment on HCT-15 colon; 1.16 µM in the experiment with KM12 colon; 0.542 µM in the experiment on MDA-MB-435; 1.56 µM in the experiment on OVCAR-3 ovarian; 2.76 µM in the experiment with SK-MEL-28 melanoma. Further, the results for the GI50 in the experiment on SNB-19 CNS and with SNB-75 CNS were 1.2 µM and 2.14 µM, respectively. The TGI was 14 µM in the experiment on A498 renal; 14.2 µM with HCT-15 colon; 12.2 µM in the experiment with KM12 colon; 14.2 µM in the experiment with MDA-MB-435; 4.59 µM in the experiment with OVCAR-3 ovarian; 15.5 µM with SK-MEL-28 melanoma. Besides, the TGI in the experiment on SNB-19 CNS was determined as 17.7 µM; in the experiment with SNB-75 CNS, 16.3 µM.
Take `O=[N+]([O-])O.[NH-]C1CCCCC1[NH-].[NH-]C1CCCCC1[NH-].[NH-]C1CCCCC1[NH-].[OH-].[OH-].[OH-].[Pt+4].[Pt+4].[Pt+4]` (stereo unspecified): the GI50 was 0.278 µM with A498 renal; 0.223 µM with HCT-15 colon; 4.05 µM in the experiment with KM12 colon; 0.367 µM with MDA-MB-435; 2.16 µM in the experiment on OVCAR-3 ovarian; 1.43 µM in the experiment on SK-MEL-28 melanoma. Besides, the GI50 with SNB-19 CNS is 1.06 µM; in the experiment with SNB-75 CNS, 1.49 µM. For the same molecule, the TGI in the experiment with A498 renal was 35.1 µM; in the experiment with HCT-15 colon, over 43.5 µM; with KM12 colon, over 100 µM; in the experiment with MDA-MB-435, 6.3 µM; with OVCAR-3 ovarian, over 68.1 µM; in the experiment on SK-MEL-28 melanoma it was 43.2 µM. The TGI with SNB-19 CNS is over 58.9 µM; in the experiment with SNB-75 CNS, 32.6 µM.
`CC(C)(C)NCCC(O)c1cc(C(F)(F)F)nc2c(C(F)(F)F)cccc12` (stereo unspecified): the TGI worked out at 28.3 µM with A498 renal; 21 µM in the experiment on HCT-15 colon; 7.58 µM in the experiment with KM12 colon; 27.6 µM in the experiment on MDA-MB-435; 20.4 µM in the experiment with OVCAR-3 ovarian; 30.7 µM in the experiment on SK-MEL-28 melanoma. The TGI was found to be 27.3 µM with SNB-19 CNS and 26.5 µM in the experiment on SNB-75 CNS.
On to `N#CC1(C#N)C2C=CC(C3CCC=C32)C1(C#N)C#N` (stereo unspecified), for which the TGI in the experiment on A498 renal, with HCT-15 colon, in the experiment on KM12 colon, in the experiment on MDA-MB-435, in the experiment with OVCAR-3 ovarian and in the experiment on SK-MEL-28 melanoma was over 10 µM throughout. For the same molecule, the TGI in the experiment on SNB-19 CNS and in the experiment on SNB-75 CNS was over 10 µM in each case.
